From patent US20230382865A1, “HISTONE DEMETHYLASE 5 INHIBITORS AND USES THEREOF” (DANA-FARBER CANCER INSTITUTE, INC., priority 2018, published 2023)
Values joined by “and” are separate entries in the source; they are usually repeats but may differ in a detail not shown here. Equal entries are not always repeated.

What was measured:
[1] = test system: luciferized molp8 cells; test: In vivo mouse study, bioluminescence imaging (BLI) of luciferized molp8 cells; design: species or system Mice; reference not given here; conditions: one individual mouse (cage, EP)
Experimental: Mice were injected intravenously with luciferized molp8 cells. Half million cells per mice. After 1 week, the tumor was observed using bioluminescence imaging (BLI). The normalized total flux was measured over 17 days (FIG. 12; Table 5) Mice were randomized into control and treatment. Treatment lasted for 21 days. Animals with 15% weight loss was terminated.

[2] = test system: MYC target genes in MM.1S cells; test: Gene expression profile by RNA-seq with gene set enrichment analysis in MM.1S cells; assay type: cell-based, human; conditions: RNA-seq after treatment in MM.1S cells
Description: To clarify the molecular mechanism whereby KDM5A mediates MM cell growth, the gene expression profile using RNA-seq after the treatment with pck82 in MM.1S cells was examined.

[3] = test system: H3K4me3 mark; test: ChIP-seq analysis of H3K4me3 mark; assay type: cell-based
[4] = target: KDM5B (Homo sapiens, UniProt Q9UGL1); test: KDM5B alphascreen activity assay; assay type: biochemical; conditions: Table 1, KDM5B alphascreen activity assay
Chain of KDM5B (Q9UGL1 whole entry): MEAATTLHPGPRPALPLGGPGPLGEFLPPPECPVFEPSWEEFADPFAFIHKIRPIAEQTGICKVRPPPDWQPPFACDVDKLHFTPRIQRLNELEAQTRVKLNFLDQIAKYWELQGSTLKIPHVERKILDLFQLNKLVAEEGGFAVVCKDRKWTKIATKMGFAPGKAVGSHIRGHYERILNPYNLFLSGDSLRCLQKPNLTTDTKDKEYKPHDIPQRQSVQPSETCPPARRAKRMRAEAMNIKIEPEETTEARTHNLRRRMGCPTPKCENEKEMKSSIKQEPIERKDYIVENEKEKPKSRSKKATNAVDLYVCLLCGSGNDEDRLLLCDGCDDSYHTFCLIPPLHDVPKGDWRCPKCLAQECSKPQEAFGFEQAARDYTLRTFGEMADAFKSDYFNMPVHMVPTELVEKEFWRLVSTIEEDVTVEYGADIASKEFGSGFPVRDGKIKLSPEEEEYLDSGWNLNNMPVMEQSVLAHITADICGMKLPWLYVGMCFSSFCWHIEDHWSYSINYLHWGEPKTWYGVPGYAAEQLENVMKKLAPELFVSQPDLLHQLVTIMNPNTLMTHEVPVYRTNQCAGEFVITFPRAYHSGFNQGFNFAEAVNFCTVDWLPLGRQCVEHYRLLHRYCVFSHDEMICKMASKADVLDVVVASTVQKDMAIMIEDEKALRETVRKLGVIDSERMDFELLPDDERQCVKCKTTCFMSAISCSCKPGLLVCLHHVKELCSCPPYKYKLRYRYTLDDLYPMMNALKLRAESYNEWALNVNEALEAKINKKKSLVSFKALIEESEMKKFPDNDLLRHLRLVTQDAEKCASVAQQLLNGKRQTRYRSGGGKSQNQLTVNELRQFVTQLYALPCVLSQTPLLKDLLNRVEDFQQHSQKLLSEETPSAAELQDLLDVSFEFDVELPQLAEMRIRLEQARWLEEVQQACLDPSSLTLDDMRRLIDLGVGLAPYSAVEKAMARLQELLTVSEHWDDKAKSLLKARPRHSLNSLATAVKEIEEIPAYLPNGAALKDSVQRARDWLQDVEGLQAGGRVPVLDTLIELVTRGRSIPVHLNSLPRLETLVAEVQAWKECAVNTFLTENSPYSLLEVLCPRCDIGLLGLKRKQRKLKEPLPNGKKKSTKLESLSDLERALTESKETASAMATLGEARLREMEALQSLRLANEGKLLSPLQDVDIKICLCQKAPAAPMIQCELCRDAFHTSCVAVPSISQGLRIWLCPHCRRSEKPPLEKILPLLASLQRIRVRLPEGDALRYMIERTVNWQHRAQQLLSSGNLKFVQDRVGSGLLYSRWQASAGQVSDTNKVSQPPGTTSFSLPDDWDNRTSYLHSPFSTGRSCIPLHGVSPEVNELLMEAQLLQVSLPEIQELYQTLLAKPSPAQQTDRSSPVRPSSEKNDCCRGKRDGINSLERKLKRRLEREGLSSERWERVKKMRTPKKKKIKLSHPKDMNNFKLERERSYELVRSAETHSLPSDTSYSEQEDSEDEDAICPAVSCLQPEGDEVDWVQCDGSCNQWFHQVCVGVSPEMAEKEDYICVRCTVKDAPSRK
Experimental: All subsequent steps were carried out in assay buffer (50 mM HEPES, pH 7.5, 0.1% (wt/vol) BSA and 0.01% (vol/vol) Tween-20). […] The final concentration of DMSO was 1%. […] Data were normalized to the (no-enzyme) control, and the IC50 values were determined via nonlinear regression curve fit using GraphPad Prism 7.

| SMILES | Normalized total flux from BLI imaging ([1]; Day 0) | Normalized total flux from BLI imaging ([1]; Day 3) | Normalized total flux from BLI imaging ([1]; Day 7) | Normalized total flux from BLI imaging ([1]; Day 10) | Normalized total flux from BLI imaging ([1]; Day 14) | Normalized total flux from BLI imaging ([1]; Day 17) | Normalized total flux from BLI imaging ([1]; Day 21) | expression of MYC target genes (gene set enrichment analysis) [2] | H3K4me3 mark, global ([3]; ChIP-seq after treatment) | H3K4me3 mark at the loci of MYC and its targets ([3]; ChIP-seq, targets whose expression is down-regulated after treatment) | IC50 [4] [µM] |
| --- | --- | --- | --- | --- | --- | --- | --- | --- | --- | --- | --- |
| CCN(CCN(C)C)C(=O)CNCc1cc(C(=O)Oc2ccc(OC(C)C)cc2OC(C)C)ccn1 [PCK82] | 1 | 3.764 and 4.5 and 4.255 and 3.625 and 2.035 and 2.296 and 3.238 and 0.2149 and 0.3339 | 0.5646 and 9.722 and 8.546 and 8.656 and 13.51 and 1.677 and 8.169 and 0.2301 and 39.37 | 6.63 and 19.33 and 0.422 and 44.375 and 23.38 and 25.97 and 24.97 and 1.029 and 6.22 | 191.7 and 165.6 and 135.1 and 93.75 and 380.3 and 314.2 and 275.1 and 75.66 and 5.654 | 306.3 and 4.861 and 358.2 and 465.625 and 258.8 and 133.2 and 277.2 and 359 and 565.6 | 45 and 3.404 and 435.5 and 58.66 and 1309 and 1224 and 847.4 and 121.6 and 1078 | decreased expression of MYC target genes | globally increased H3K4me3 mark | did not increase this mark |  |
| CC(C)c1c(-c2ccccc2)[nH]c2c(C#N)cnn2c1=O [CPI455] |  |  |  |  |  |  |  |  |  |  | 7.92 |
